Test results as given in PubChem BioAssay (NCI).
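Growth conditions: 96-well plates. Treatment: test compound, 48 hours, 5 concentrations. Analysis: linear interpolation between bracketing concentrations; unreached endpoints set to highest concentration. GI50 marks 50% less growth. Definition used: TGI = concentration required for complete inhibition of growth.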

Legend:
Assay in all cases: inhibition of tumour cell growth, NCI panel, 48 h
A498 renal = tested on: A498 renal
SK-OV-3 ovarian = tested on: SK-OV-3 ovarian
KM12 colon = tested on: KM12 colon
COLO 205 colon = tested on: COLO 205 colon
MDA-MB-435 = tested on: MDA-MB-435
HOP-92 NSCLC = tested on: HOP-92 NSCLC
OVCAR-4 ovarian = tested on: OVCAR-4 ovarian
MCF7 breast = tested on: MCF7 breast
RXF 393 renal = tested on: RXF 393 renal
HOP-62 NSCLC = tested on: HOP-62 NSCLC
UACC-257 melanoma = tested on: UACC-257 melanoma
IGROV1 ovarian = tested on: IGROV1 ovarian
OVCAR-3 ovarian = tested on: OVCAR-3 ovarian
NCI-H23 lung = tested on: NCI-H23 lung
M14 melanoma = tested on: M14 melanoma
SK-MEL-28 melanoma = tested on: SK-MEL-28 melanoma
DU-145 prostate = tested on: DU-145 prostate
HL-60(TB) leukemia = tested on: HL-60(TB) leukemia
HCT-15 colon = tested on: HCT-15 colon
SF-295 CNS = tested on: SF-295 CNS
BT-549 breast = tested on: BT-549 breast
SK-MEL-2 melanoma = tested on: SK-MEL-2 melanoma
786-0 renal = tested on: 786-0 renal
LOX IMVI melanoma = tested on: LOX IMVI melanoma
SF-539 CNS = tested on: SF-539 CNS
EKVX NSCLC = tested on: EKVX NSCLC
U251 CNS = tested on: U251 CNS
NCI-H460 lung = tested on: NCI-H460 lung
NCI-H522 lung = tested on: NCI-H522 lung
NCI/ADR-RES ovarian = tested on: NCI/ADR-RES ovarian
RPMI-8226 leukemia = tested on: RPMI-8226 leukemia
SNB-75 CNS = tested on: SNB-75 CNS
MALME-3M melanoma = tested on: MALME-3M melanoma
SK-MEL-5 melanoma = tested on: SK-MEL-5 melanoma
SNB-19 CNS = tested on: SNB-19 CNS
MDA-MB-231 breast = tested on: MDA-MB-231 breast
HS 578T breast = tested on: HS 578T breast
OVCAR-8 ovarian = tested on: OVCAR-8 ovarian
OVCAR-5 ovarian = tested on: OVCAR-5 ovarian
T-47D breast = tested on: T-47D breast
PC-3 prostate = tested on: PC-3 prostate
SN12C renal = tested on: SN12C renal
UO-31 renal = tested on: UO-31 renal
NCI-H226 lung = tested on: NCI-H226 lung
SF-268 CNS = tested on: SF-268 CNS
ACHN renal = tested on: ACHN renal
K-562 leukemia = tested on: K-562 leukemia
HT29 colon = tested on: HT29 colon
HCC-2998 colon = tested on: HCC-2998 colon
UACC-62 melanoma = tested on: UACC-62 melanoma
HCT-116 colon = tested on: HCT-116 colon
CAKI-1 renal = tested on: CAKI-1 renal
A549 NSCLC = tested on: A549 NSCLC
SW-620 colon = tested on: SW-620 colon

CC(=O)Nc1cc(C(c2ccccc2)c2ccccc2)cc(C(c2ccccc2)c2ccccc2)c1C
GI50 (A498 renal): 6.24 µM | TGI (A498 renal): > 100 µM | GI50 (SK-OV-3 ovarian): > 100 µM | TGI (SK-OV-3 ovarian): > 100 µM | GI50 (KM12 colon): 6.19 µM | TGI (KM12 colon): > 100 µM | GI50 (COLO 205 colon): 7.36 µM | TGI (COLO 205 colon): > 100 µM | GI50 (MDA-MB-435): 6.81 µM | TGI (MDA-MB-435): > 100 µM | GI50 (HOP-92 NSCLC): 4.68 µM | TGI (HOP-92 NSCLC): > 100 µM | GI50 (OVCAR-4 ovarian): 21.7 µM | TGI (OVCAR-4 ovarian): > 100 µM | GI50 (MCF7 breast): 4.77 µM | TGI (MCF7 breast): > 100 µM | GI50 (RXF 393 renal): 27.5 µM | TGI (RXF 393 renal): > 100 µM | GI50 (HOP-62 NSCLC): > 100 µM | TGI (HOP-62 NSCLC): > 100 µM | GI50 (UACC-257 melanoma): 8.72 µM | TGI (UACC-257 melanoma): > 100 µM | GI50 (IGROV1 ovarian): 32.5 µM | TGI (IGROV1 ovarian): > 100 µM | GI50 (OVCAR-3 ovarian): 7.33 µM | TGI (OVCAR-3 ovarian): > 100 µM | GI50 (NCI-H23 lung): 6.22 µM | TGI (NCI-H23 lung): > 100 µM | GI50 (M14 melanoma): > 100 µM | TGI (M14 melanoma): > 100 µM | GI50 (SK-MEL-28 melanoma): > 100 µM | TGI (SK-MEL-28 melanoma): > 100 µM | GI50 (DU-145 prostate): > 100 µM | TGI (DU-145 prostate): > 100 µM | GI50 (HL-60(TB) leukemia): 3.1 µM | TGI (HL-60(TB) leukemia): > 100 µM | GI50 (HCT-15 colon): 7.12 µM | TGI (HCT-15 colon): > 100 µM | GI50 (SF-295 CNS): 2.64 µM | TGI (SF-295 CNS): 7.49 µM | GI50 (BT-549 breast): 8.2 µM | TGI (BT-549 breast): > 100 µM | GI50 (SK-MEL-2 melanoma): 5.18 µM | TGI (SK-MEL-2 melanoma): > 100 µM | GI50 (786-0 renal): > 100 µM | TGI (786-0 renal): > 100 µM | GI50 (LOX IMVI melanoma): 7.98 µM | TGI (LOX IMVI melanoma): > 100 µM | GI50 (SF-539 CNS): > 100 µM | TGI (SF-539 CNS): > 100 µM | GI50 (EKVX NSCLC): 3.23 µM | TGI (EKVX NSCLC): > 100 µM | GI50 (U251 CNS): 7.63 µM | TGI (U251 CNS): > 100 µM | GI50 (NCI-H460 lung): 7.49 µM | TGI (NCI-H460 lung): > 100 µM | GI50 (NCI-H522 lung): 6.39 µM | TGI (NCI-H522 lung): > 100 µM | GI50 (NCI/ADR-RES ovarian): 6.01 µM | TGI (NCI/ADR-RES ovarian): > 100 µM | GI50 (RPMI-8226 leukemia): 1.88 µM | TGI (RPMI-8226 leukemia): 7.67 µM | GI50 (SNB-75 CNS): 21.4 µM | TGI (SNB-75 CNS): > 100 µM | GI50 (MALME-3M melanoma): 9.59 µM | TGI (MALME-3M melanoma): > 100 µM | GI50 (SK-MEL-5 melanoma): 5.51 µM | TGI (SK-MEL-5 melanoma): > 100 µM | GI50 (SNB-19 CNS): > 100 µM | TGI (SNB-19 CNS): > 100 µM | GI50 (MDA-MB-231 breast): 4.21 µM | TGI (MDA-MB-231 breast): > 100 µM | GI50 (HS 578T breast): 28 µM | TGI (HS 578T breast): > 100 µM | GI50 (OVCAR-8 ovarian): > 100 µM | TGI (OVCAR-8 ovarian): > 100 µM | GI50 (OVCAR-5 ovarian): > 100 µM | TGI (OVCAR-5 ovarian): > 100 µM | GI50 (T-47D breast): 3.18 µM | TGI (T-47D breast): > 100 µM | GI50 (PC-3 prostate): 4.13 µM | TGI (PC-3 prostate): > 100 µM | GI50 (SN12C renal): 27.5 µM | TGI (SN12C renal): > 100 µM | GI50 (UO-31 renal): 3.54 µM | TGI (UO-31 renal): > 100 µM | GI50 (NCI-H226 lung): 6.8 µM | TGI (NCI-H226 lung): > 100 µM | GI50 (SF-268 CNS): 8.2 µM | TGI (SF-268 CNS): > 100 µM | GI50 (ACHN renal): 8.71 µM | TGI (ACHN renal): > 100 µM | GI50 (K-562 leukemia): 2.83 µM | TGI (K-562 leukemia): > 100 µM | GI50 (HT29 colon): 8.26 µM | TGI (HT29 colon): > 100 µM | GI50 (HCC-2998 colon): 14.7 µM | TGI (HCC-2998 colon): > 100 µM | GI50 (UACC-62 melanoma): 5.86 µM | TGI (UACC-62 melanoma): > 100 µM | GI50 (HCT-116 colon): 3.28 µM | TGI (HCT-116 colon): > 100 µM | GI50 (CAKI-1 renal): > 100 µM | TGI (CAKI-1 renal): > 100 µM | GI50 (A549 NSCLC): 4.95 µM | TGI (A549 NSCLC): > 100 µM | GI50 (SW-620 colon): 7.25 µM | TGI (SW-620 colon): > 100 µM
